Measurements reported in US20090299044A1 (priority 2006, published 2009).
Bridge positions count the residues as written; N and C are the ends. Peptide text beside a SMILES is read from it.

Tests used:
human Kv1.3 channel = human Kv1.3 channel (Homo sapiens, UniProt P22001); assay: cell-based; format: cell-based
human Kv1.1 (HEK293) = molecular target: T1, human Kv1.1 (HEK293) (Homo sapiens, UniProt Q09470); assay: cell-based
T1 construct: expressed in transfected cells; host or cells: HEK293

human Kv1.1 = human Kv1.1 (Homo sapiens, UniProt Q09470); assay: cell-based; set-up: expressed in transfected cells; host or cells: HEK293
Chain of human Kv1.1 (Q09470 whole entry): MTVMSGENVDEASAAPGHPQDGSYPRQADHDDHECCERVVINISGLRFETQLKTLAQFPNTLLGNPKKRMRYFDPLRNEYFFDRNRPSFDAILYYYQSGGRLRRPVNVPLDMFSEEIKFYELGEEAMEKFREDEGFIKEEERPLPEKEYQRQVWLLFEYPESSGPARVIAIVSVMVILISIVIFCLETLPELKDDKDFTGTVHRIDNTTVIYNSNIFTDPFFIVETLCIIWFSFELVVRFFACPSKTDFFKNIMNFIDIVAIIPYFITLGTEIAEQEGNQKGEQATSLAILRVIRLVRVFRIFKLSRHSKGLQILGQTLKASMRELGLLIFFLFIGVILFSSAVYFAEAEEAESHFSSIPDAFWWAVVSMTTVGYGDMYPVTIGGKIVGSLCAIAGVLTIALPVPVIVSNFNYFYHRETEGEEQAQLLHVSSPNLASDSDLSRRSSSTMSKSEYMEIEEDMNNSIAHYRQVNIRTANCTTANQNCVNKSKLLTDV

human Kv1.3 (CHO) = molecular target: T2, human Kv1.3 (CHO) (Homo sapiens, UniProt P22001); assay: cell-based
T2 construct: expressed in transfected cells; host or cells: CHO
T2 sequence (P22001 whole entry): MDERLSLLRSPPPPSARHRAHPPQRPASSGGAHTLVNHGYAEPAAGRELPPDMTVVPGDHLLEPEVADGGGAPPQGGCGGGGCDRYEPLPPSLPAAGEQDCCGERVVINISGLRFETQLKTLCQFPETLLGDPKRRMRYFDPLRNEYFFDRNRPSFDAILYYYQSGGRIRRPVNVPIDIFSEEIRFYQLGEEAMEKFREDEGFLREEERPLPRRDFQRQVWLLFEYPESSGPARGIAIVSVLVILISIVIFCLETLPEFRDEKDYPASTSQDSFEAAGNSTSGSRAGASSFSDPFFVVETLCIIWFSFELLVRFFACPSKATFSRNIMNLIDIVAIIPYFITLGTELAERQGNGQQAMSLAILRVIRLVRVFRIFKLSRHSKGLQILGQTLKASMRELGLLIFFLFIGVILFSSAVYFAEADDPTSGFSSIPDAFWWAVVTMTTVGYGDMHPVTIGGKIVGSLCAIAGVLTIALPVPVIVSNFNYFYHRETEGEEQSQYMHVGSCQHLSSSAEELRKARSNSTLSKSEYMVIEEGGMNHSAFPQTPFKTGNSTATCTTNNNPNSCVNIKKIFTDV

[1] = cited from earlier work
[2] = rat, in vivo, iv, 1 mg/kg

T1 sequence (Q09470 whole entry): as the sequence (Q09470 whole entry) above
Chain of human Kv1.3 channel (P22001 whole entry): as the sequence (P22001 whole entry) above

SMILES	IC50 (human Kv1.3 channel) [nM]	IC50 (human Kv1.1 (HEK293)) [nM]	IC50 (human Kv1.1) [nM]	IC50 (human Kv1.3 (CHO)) [nM]	half-life in vivo [1] [min]	half-life of the native ShK molecule ([1]; in vivo)	duration of significant suppression of Kv1.3 current (<70 POC) by 5% serum Test solutions [2] [h]
CC[C@H](C)[C@@H]1NC(=O)[C@H](CCCCN)NC(=O)[C@@H](NC(=O)[C@H](CCCCN)NC(=O)[C@@H](NC(=O)[C@H](CC(N)=O)NC(=O)[C@@H](NC(=O)[C@@H](NC(=O)[C@@H](NC(=O)CN)C(C)C)[C@@H](C)CC)[C@@H](C)CC)C(C)C)CSSC[C@@H]2NC(=O)[C@H](C)NC(=O)CNC(=O)[C@H](Cc3ccccc3)NC(=O)[C@H](CCCNC(=N)N)NC(=O)[C@H](CCSC)NC(=O)CNC(=O)[C@H](C)NC(=O)[C@H](CCCCN)NC(=O)[C@H](CCCCN)NC(=O)[C@@H]3CSSC[C@@H](C(=O)N[C@H](C(=O)N4CCC[C@H]4C(=O)N[C@@H](CCCCN)C(=O)O)[C@@H](C)O)NC(=O)[C@H](Cc4c[nH]cn4)NC(=O)[C@H](CSSC[C@H](NC(=O)[C@H](CCC(N)=O)NC(=O)[C@H](CCCNC(=N)N)NC(=O)[C@H](CO)NC1=O)C(=O)N[C@@H](CC(C)C)C(=O)N[C@@H](CCC(=O)O)C(=O)N1CCC[C@H]1C(=O)N3)NC(=O)[C@H](CCCCN)NC(=O)CNC(=O)[C@H](CC(N)=O)NC(=O)[C@H](CCSC)NC2=O [K27A] (H-GVIINVKCKISRQCLEPCKKAGMRFGACMNGKCHCTPK-OH; disulfide 8-28, 14-33, 18-35)	0.289	> 3	10.1	0.232	–	–	–
CC[C@H](C)[C@@H]1NC(=O)[C@@H](NC(=O)[C@H](CO)NC(=O)[C@@H](N)CCCNC(=N)N)CSSC[C@@H](C(=O)O)NC(=O)[C@H]([C@@H](C)O)NC(=O)CNC(=O)[C@@H]2CSSC[C@@H]3NC(=O)[C@H](CCC(N)=O)NC(=O)[C@H](Cc4ccccc4)NC(=O)[C@H](C)NC(=O)[C@H]([C@@H](C)O)NC(=O)[C@H](CSSC[C@H](NC(=O)[C@H](Cc4ccccc4)NC(=O)[C@H](CO)NC(=O)[C@H](CC(C)C)NC(=O)[C@H](CCCNC(=N)N)NC(=O)[C@H](Cc4ccc(O)cc4)NC(=O)[C@H](CCCCN)NC(=O)[C@H](CCSC)NC(=O)[C@H](CO)NC(=O)[C@H](Cc4cnc[nH]4)NC(=O)[C@H](CCCCN)NC3=O)C(=O)N[C@@H](CCCNC(=N)N)C(=O)N[C@@H](CCCCN)C(=O)N[C@@H]([C@@H](C)O)C(=O)N2)NC(=O)[C@H](CCCNC(=N)N)NC(=O)[C@H](CO)NC(=O)[C@H](CCCCN)NC(=O)[C@@H]2CCCN2C(=O)[C@H]([C@@H](C)CC)NC(=O)[C@H]([C@@H](C)O)NC(=O)[C@H](CC(=O)O)NC1=O [ShK[1-35]]	–	–	–	–	~20	approximately 0.33 hour	≤ 1
